In patent publication US9737075B2, “Synergistic benzoxaborole-containing anti-fungicidal composition” (The Penn State Research Foundation, priority 2015, dated 2017):
≈ marks a conversion by molar mass, not a printed value. Where two headings read alike, the source gives them in different places.

Columns and labels:
Type in all cases: cell-based
[1] = test system: Mycosphaerella zeae-maydis; experiment: Broth microdilution MIC of individual antifungals; conditions: individual antifungal, 25% PDB, about 25° C., 72 hours, range over N independent triplicate studies; for MIC: Didymella maydis
[2] = test system: Alternaria solani; experiment: Broth microdilution MIC of individual antifungals; conditions: for MIC: read-out: Independent MIC
[3] = test system: Aspergillus fumigatus; experiment: Broth microdilution MIC of individual antifungals; conditions: for MIC: read-out: Independent MIC
[4] = test system: Botrytis cinerea 10-1728; experiment: Broth microdilution MIC of individual antifungals; conditions: for MIC: read-out: Independent MIC
[5] = test system: Botrytis cinerea B17; experiment: Broth microdilution MIC of individual antifungals; conditions: Botrytis cinerea B17, individual antifungal, 25% PDB, about 25° C., 72 hours, range over N independent triplicate studies; for MIC: read-out: Independent MIC
[6] = test system: Fusarium graminearum; experiment: microbe, parasite or virus in culture; conditions: for MIC: 72 h, read-out: Independent MIC
[7] = test system: Stachybotrys chartarum; experiment: Broth microdilution MIC of individual antifungals; conditions: individual antifungal, 25% PDB, about 25° C., 72 hours, range over N independent triplicate studies; for MIC: read-out: Independent MIC
[8] = test system: Pythium aphanodermatum; experiment: Broth microdilution MIC of individual antifungals; conditions: individual antifungal, 25% PDB, about 25° C., 72 hours, range over N independent triplicate studies
[9] = test system: Mucor sp.; experiment: Broth microdilution MIC of individual antifungals; conditions: individual antifungal, 25% PDB, about 25° C., 72 hours, range over N independent triplicate studies
[10] = test system: Phytophthora pini; experiment: Broth microdilution MIC of individual antifungals; conditions: individual antifungal, 25% PDB, about 25° C., 72 hours, range over N independent triplicate studies
[11] = test system: Penicillium chrysogenum; experiment: Broth microdilution MIC of individual antifungals; conditions: individual antifungal, 25% PDB, about 25° C., 72 hours, range over N independent triplicate studies
[12] = test system: Aureobasidium pullulans; experiment: Broth microdilution MIC of individual antifungals; conditions: individual antifungal, 25% PDB, about 25° C., 72 hours, range over N independent triplicate studies, read-out: Independent MIC
[13] = test system: Aspergillus flavus; experiment: Broth microdilution MIC of individual antifungals; conditions: for MIC: read-out: Independent MIC
[14] = test system: Aspergillus niger; experiment: Broth microdilution MIC of individual antifungals; conditions: individual antifungal, 25% PDB, about 25° C., 72 hours, range over N independent triplicate studies; for MIC: read-out: Independent MIC
[15] = test system: Sclerotinia homoeocarpa; experiment: Broth microdilution MIC of individual antifungals; conditions: for MIC: Clarireedia homoeocarpa, read-out: Independent MIC
[16] = test system: Fusarium verticillioides; experiment: Broth microdilution MIC of individual antifungals; conditions: for MIC: read-out: Independent MIC
[17] = test system: Fusarium solani f. sp. pisi (MP VI); experiment: Broth microdilution MIC of individual antifungals; conditions: Fusarium solani f. sp. pisi (MP VI), individual antifungal, 25% PDB, about 25° C., 72 hours, range over N independent triplicate studies
[18] = test system: Fusarium oxysporum ST33; experiment: Broth microdilution MIC of individual antifungals; conditions: individual antifungal, 25% PDB, about 25° C., 72 hours, range over N independent triplicate studies
[19] = test system: Fusarium oxysporum f. sp. lycopersici; experiment: Broth microdilution MIC of individual antifungals; conditions: individual antifungal, 25% PDB, about 25° C., 72 hours, range over N independent triplicate studies
[20] = test system: Rhizopus sp.; experiment: Broth microdilution MIC of individual antifungals; conditions: Rhizopus sp., individual antifungal, 25% PDB, about 25° C., 72 hours, range over N independent triplicate studies; for MIC: Rhizopus, 72 h, read-out: Independent MIC
[21] = test system: Rhizoctonia solani; experiment: Broth microdilution MIC of individual antifungals; conditions: for MIC: read-out: Independent MIC
[22] = test system: Colletotrichum orbiculare; experiment: Broth microdilution MIC of individual antifungals; conditions: individual antifungal, 25% PDB, about 25° C., 72 hours, range over N independent triplicate studies; for MIC: read-out: Independent MIC
[23] = test system: Candida albicans; experiment: Broth microdilution MIC of individual antifungals; conditions: individual antifungal, 25% PDB, about 25° C., 72 hours, range over N independent triplicate studies
[24] = test system: Magnaporthe grisea; experiment: microbe, parasite or virus in culture; conditions: for MIC: Pyricularia oryzae, 72 h, read-out: Independent MIC
[25] = individual antifungal, 25% PDB, about 25° C., 72 hours, range over N independent triplicate studies
[26] = Botrytis cinerea 10-1728, individual antifungal, 25% PDB, about 25° C., 72 hours, range over N independent triplicate studies
[27] = Sclerotinia homoeocarpa, individual antifungal, 25% PDB, about 25° C., 72 hours, range over N independent triplicate studies
[28] = 101728, Botrytis cinerea 10-1728, individual antifungal, 25% PDB, about 25° C., 72 hours, range over N independent triplicate studies

CO/C=C(/C(=O)OC)c1ccccc1Oc1cc(Oc2ccccc2C#N)ncn1 [Azoxystrobin, azoxystrobin]
Independent MIC [1]: 20 µg/mL
Independent MIC [2, 25]: 100 µg/mL
Independent MIC [3, 25]: (50-100) μg/mL
Independent MIC [4, 26]: (110-400) μg/mL
Independent MIC [5]: (12.5-25)^ μg/mL
Independent MIC ([6]; Fusarium graminearum, individual antifungal, 25% PDB, about 25° C., 72 hours, range over N independent triplicate studies): 400 µg/mL
Independent MIC [7]: (25-50) μg/mL
Independent MIC [8]: 6.25 µg/mL
Independent MIC [9]: 200 µg/mL
Independent MIC [10]: 100 µg/mL
Independent MIC [11]: (0.39-1.5) μg/mL

Nc1ccc2c(c1)COB2O [B2, 5-Amino-1,3-dihydro-2,1-benzoxaborol-1-ol]
MIC [1]: > 32 µg/mL
MIC [2, 25]: > 32 µg/mL
MIC [12]: > 32 µg/mL
MIC [13, 25]: > 32 µg/mL
MIC [3, 25]: > 32 µg/mL
MIC [14]: > 32 µg/mL
MIC [15, 27]: > 32 µg/mL
MIC [4, 28]: > 32 µg/mL
MIC [5]: > 32 µg/mL
MIC [16, 25]: > 32 µg/mL
MIC ([17]; read-out: Independent MIC): > 32 µg/mL
MIC [18]: > 32 µg/mL
MIC [19]: > 32 µg/mL
MIC [7]: > 32 µg/mL
MIC [20]: > 32 µg/mL
MIC [9]: > 32 µg/mL

Cc1ccc(-c2c(Cl)nc(C#N)n2S(=O)(=O)N(C)C)cc1 [Cyazofamid, cyazofamid]
MIC [1]: 100 µg/mL
MIC [15, 27]: 100 µg/mL
MIC [4, 28]: 200 to 400 µg/mL
MIC ([6]; Fusarium graminearum): 100 µg/mL (≈ 308 µM)
MIC [16, 25]: 200 µg/mL
MIC [21, 25]: 50 to 100 µg/mL
MIC [22]: 50 to 100 µg/mL

CC(C1CC1)C(O)(Cn1cncn1)c1ccc(Cl)cc1 (stereo not drawn) [Cyproconazole, cyproconazole]
MIC [1]: 3.12 to 6 µg/mL
MIC [13, 25]: 50 to 100 µg/mL
MIC [3, 25]: 12.5 to 25 µg/mL
MIC [14]: 25 µg/mL
MIC [15, 27]: 1.56 to 3.12 µg/mL
MIC [4, 28]: 0.78 to 2 µg/mL
MIC ([23]; read-out: Independent MIC): 100 to 400 µg/mL
MIC [16, 25]: 3 to 3.12 µg/mL
MIC [20]: 12.5 to 50 µg/mL
MIC [9]: 100 to 200 µg/mL
MIC [21, 25]: 6.25 to 12.5 µg/mL
MIC ([11]; read-out: Independent MIC): 100 µg/mL
MIC [22]: 6.25 to 12.5 µg/mL

CCOP(=O)(Sc1ccccc1)Sc1ccccc1 [Edifenphos, edifenphos]
MIC [1]: 200 to 400 µg/mL
MIC ([2]; 72 h): 200 µg/mL
MIC ([3]; 72 h): 200 µg/mL
MIC ([15]; 72 h): 3.12 to 6.25 µg/mL
MIC ([4]; Botrytis cinerea, 101728, 72 h): 100 to 200 µg/mL
MIC ([16]; 72 h): 200 to 400 µg/mL
MIC [9]: 50 to 100 µg/mL
MIC [24]: 6.25 µg/mL (≈ 20.1 µM)
MIC [10]: 100 µg/mL
MIC ([21]; 72 h): 200 to 400 µg/mL

CC1(C(=O)Nc2ccc(O)c(Cl)c2Cl)CCCCC1 [Fenhexamid, fenhexamid]
MIC [1]: 100 to 200 µg/mL
MIC [2, 25]: 100 to 200 µg/mL
MIC [12]: 100 µg/mL
MIC ([13]; 72 h): 3.12 to 6.25 µg/mL
MIC [3, 25]: 400 µg/mL
MIC [15, 27]: 64 µg/mL
MIC [4, 28]: 200 µg/mL
MIC [5]: 4 µg/mL
MIC ([6]; Fusarium graminearum): 25 to 50 µg/mL (≈ 82.7 to 165 µM)
MIC [7]: 12.5 µg/mL
MIC [8]: 0.78 to 0.8 µg/mL
MIC [9]: 100 µg/mL
MIC [24]: 3.12 µg/mL (≈ 10.3 µM)
MIC [10]: 50 µg/mL
MIC [22]: 100 to 200 µg/mL

[Cl][Sn]([c]1ccccc1)([c]1ccccc1)[c]1ccccc1 [Fentin Chloride, fentin chloride]
Independent MIC [1]: 50 µg/mL
Independent MIC [2, 25]: (10-12.5) μg/mL
Independent MIC [13, 25]: (0.78-1) μg/mL
Independent MIC [3, 25]: 0.78 µg/mL
Independent MIC [14]: (0.78-1) μg/mL
Independent MIC [15, 27]: 12.5 µg/mL
Independent MIC [4, 26]: (50-100) μg/mL
Independent MIC [23]: (0.78-1.56) μg/mL
Independent MIC [6]: (50-200) μg/mL
Independent MIC [16, 25]: (6.25-12.5) μg/mL
Independent MIC [17]: (0.78-3.12) μg/mL
Independent MIC [20]: (0.39-0.78) μg/mL
Independent MIC [9]: (1-1.56) μg/mL
Independent MIC [24]: 1.25 µg/mL
Independent MIC [10]: 0.098 µg/mL
Independent MIC [21, 25]: (12.5-25)^ μg/mL
Independent MIC [11]: (0.1-0.2) μg/mL
Independent MIC [22]: 1.56 µg/mL
